The conditions of data set [1]: single ascending dose study in healthy Japanese adults; cited from earlier work.
The nature of data set [2]: Phase I clinical study Part 1, single administration, pharmacokinetics and safety. Type of data set: in vivo, human. The following applies: human, plasma, oral; in any dose group, single administration. How it is done: Test Example 3-1 Phase I Clinical Study
All studies were conducted based on Good Clinical Practice (GCP). The phase I clinical study was composed of Part 1 to Part 7, and in Part 1, the safety, tolerability, and pharmacokinetics were confirmed when the fumaric acid cocrystal Form I crystal of the compound represented by Formula (I) was administered once and when it was administered repeatedly.
The subjects who were determined to be eligible by the screening examination were randomly assigned to either the active drug group (see the following table for the dose of the fumaric acid cocrystal Form I crystal of the compound represented by Formula (I)) or the placebo group on the day before the day of administration of the investigational new drug (Day −1). On Day 1, the investigational new drug (active drug or placebo) was administered once in the fasted state.

Each structure is given as a SMILES string. Some results are limits rather than exact numbers.

Broadly, the half-life is how long it takes for the measured level to halve. Lower therefore signals rapid decline. Turning to `Cn1cnc(Cn2c(=O)[nH]/c(=N\c3cc4cn(C)nc4cc3Cl)n(Cc3cc(F)c(F)cc3F)c2=O)n1` [compound represented by Formula (I), (6E)-6-[(6-chloro-2-methyl-2H-indazol-5-yl)imino]-3-[(1-methyl-1H-1,2,4-triazol-3-yl)methyl]-1-[(2,4,5-trifluorophenyl)methyl]-1,3,5-triazinane-2,4-dione], the Safety and tolerability result in data set [1] is “good safety and tolerability were confirmed”. In addition, the half-life in data set [2] was over 2400 min.

Values taken from US20250099474A1 (priority 2022, published 2025).
